# Laboratory results taken from BindingDB's records for PubMed 26804741 (Helmholtz Institute For Pharmaceutical Research Saarland …, 2016).
# Assay: Inhibition of Pseudomonas aeruginosa LecB
row,Compound,IC50 [µM]
1,CC[C@H](C)[C@H](NC(=O)[C@H](Cc1cnc[nH]1)NCCCC[C@H](NC(=O)[C@@H](NC(=O)[C@H](CCCCN)NC(=O)[C@H](Cc1ccccc1)NC(=O)[C@H](CCCCNC(=O)[C@H](CC(C)C)NC(=O)[C@@H]1CCCN1C(=O)[C@@H](N)CCCCNC(=O)C[C@@H]1O[C@@H](C)[C@@H](O)[C@@H](O)[C@@H]1O)NC(=O)[C@H](CC(C)C)NC(=O)[C@@H]1CCCN1C(=O)[C@@H](N)CCCCNC(=O)C[C@@H]1O[C@@H](C)[C@@H](O)[C@@H](O)[C@@H]1O)[C@@H](C)CC)C(=O)N[C@H](C(=O)N[C@@H](CCCCN)C(=O)N[C@@H](Cc1ccccc1)C(=O)N[C@@H](CCCCN[C@@H](CC(C)C)C(=O)N1CCC[C@H]1C(=O)N[C@@H](CCCCNC(=O)C[C@@H]1O[C@@H](C)[C@@H](C)[C@@H](C)[C@@H]1O)C(=O)O)C(=O)N[C@@H](CC(C)C)C(=O)N1CCC[C@H]1C(=O)N[C@@H](CCCCNC(=O)C[C@@H]1O[C@@H](C)[C@@H](O)[C@@H](O)[C@@H]1O)C(=O)O)[C@@H](C)CC)C(N)=O,0.14
2,CCCCCCCCO[C@@H]1O[C@H](CO)[C@H](O[C@@H]2O[C@H](CO)[C@H](O)[C@H](O)[C@H]2NC(C)=O)[C@H](O)[C@H]1OCCC,8
3,CO[C@H]1O[C@H]([C@@H](O)CNS(=O)(=O)c2c(C)cc(C)cc2C)[C@@H](O)[C@H](O)[C@@H]1O,100
